# What was measured:
# rape = test: Test B pre/postemergence rape; format: in vivo, Brassica napus
# Procedure, shortened: (§1)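 Test chemicals in a non-phytotoxic solvent mixture with surfactant were sprayed preemergence onto planted seeds and postemergence onto plants 2 to 18 cm tall (1- to 4-leaf stage). After twelve to sixteen days in a greenhouse, injury was visually rated against untreated controls from 0 (no effect) to 10 (complete control).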
# sugar beet = test: Test B pre/postemergence sugar beet; format: in vivo, Beta vulgaris
# Procedure, shortened: as §1
# purple nutsedge = test: Test B pre/postemergence purple nutsedge; format: in vivo, Cyperus rotundus
# Procedure, shortened: as §1
# duck salad = test: Test B flood test duck salad; format: in vivo, Heteranthera limosa; conditions: for Plant response rating, Ducksalad (0 to 10 scale, 0 is no effect, 10 is complete control) / Ducksalad plant response rating (0 to 10 scale, 0 is no effect, 10 is complete control): visual evaluation after twelve to sixteen days; for Ducksalad plant response rating (0 to 10 scale, 0 is no effect, 10 is complete control): under heading Pre-emergence
# Procedure, shortened: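 Each value is a visual injury score relative to controls, with 10 meaning complete control and 0 no effect. Evaluation took place twelve to sixteen days after the 2-leaf-stage plants were treated and kept in the greenhouse.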
# [1] = Preemergence, Rate 62 g/ha, scale of 0 to 10 where 0 is no effect and 10 is complete control
# [2] = Preemergence, Rate 250 g/ha, scale of 0 to 10 where 0 is no effect and 10 is complete control
# [3] = Preemergence, Rate 500 g/ha, scale of 0 to 10 where 0 is no effect and 10 is complete control
# [4] = Rate 62 g/ha, Postemergence, scale 0 to 10 (0 no effect, 10 complete control)
# [5] = Rate 125 g/ha, Postemergence, scale of 0 to 10 where 0 is no effect and 10 is complete control
# [6] = Rate 250 g/ha, Postemergence, scale of 0 to 10 where 0 is no effect and 10 is complete control
# [7] = Rate 62 g/ha, headed Pre-emergence (flood test species), scale 0 to 10 (0 no effect, 10 complete control)
# [8] = Rate 125 g/ha, Pre-emergence, flood test species, scale 0 to 10 where 0 is no effect and 10 is complete control
# [9] = Rate 250 g/ha, Pre-emergence, flood-test species, scale 0 to 10, 0 is no effect, 10 is complete control
# [10] = Rate 500 g/ha, Pre-emergence, flood test species, scale 0 to 10 (0 no effect, 10 complete control)
# [11] = Postemergence, Rate 62 g/ha, scale 0 to 10, 0 is no effect, 10 is complete control
# [12] = Postemergence, Rate 250 g/ha, scale 0 to 10, 0 no effect, 10 complete control
# [13] = Preemergence, Rate 62 g/ha, scale 0 to 10 (0 no effect, 10 complete control)
# [14] = Preemergence, Rate 125 g/ha, scale 0 to 10 (0 no effect, 10 complete control)
# [15] = Preemergence, Rate 500 g/ha, scale 0 (no effect) to 10 (complete control)
# [16] = Rate 125 g/ha, Postemergence, scale 0 to 10, 0 no effect, 10 complete control
# [17] = Rate 500 g/ha, Postemergence, scale 0 to 10, 0 no effect, 10 complete control
# [18] = Postemergence, Rate 62 g/ha, scale of 0 to 10, 0 is no effect, 10 is complete control
# [19] = Postemergence, Rate 125 g/ha, scale 0 to 10, 0 is no effect, 10 is complete control
# [20] = Postemergence, Rate 500 g/ha, scale 0 to 10, 0 is no effect, 10 is complete control
# [21] = Preemergence, Rate 125 g/ha, scale 0 to 10, 0 is no effect, 10 is complete control
# [22] = Rate 62 g/ha, flood test species, Pre-emergence
# [23] = Rate 125 g/ha, flood test species
# [24] = Rate 250 g/ha, Pre-emergence (flood test species), scale 0 to 10, 0 is no effect, 10 is complete control
# [25] = Rate 500 g/ha, Pre-emergence section of Table B, 0 to 10 scale (0 no effect, 10 complete control)
# [26] = Postemergence, Rate 31 g/ha, visual rating, scale 0 to 10 (0 no effect, 10 complete control)
# [27] = Rate 125 g/ha, Preemergence, scale of 0 to 10 where 0 is no effect and 10 is complete control
# [28] = Postemergence, Rate 125 g/ha, scale of 0 to 10 where 0 is no effect and 10 is complete control
# [29] = Postemergence, Rate 250 g/ha, scale of 0 to 10, 0 is no effect, 10 is complete control
# [30] = Preemergence, Rate 125 g/ha, scale of 0 to 10 where 0 is no effect and 10 is complete control
# [31] = Preemergence, Rate 250 g/ha, scale 0 to 10 (0 no effect, 10 complete control)
compound,measurement,setting,value
CC(C)n1c(=O)on(C(=O)N(c2ccc(Cl)cc2Cl)C2CCC2)c1=O [Compound 319],Rape plant response rating,rape; [1],0
same,Rape plant response rating (0 to 10 scale),"rape; Preemergence, Rate 125 g/ha",0
same,Rape plant response rating,rape; [2],0
same,Rape plant response rating,rape; [3],0
same,Rape plant response rating,rape; [4],0
same,Rape plant response rating,rape; [5],0
same,"Plant response rating, Rape",rape; [6],0
same,Sugarbeets plant response rating,sugar beet; [1],0
same,Sugarbeets plant response rating (0 to 10 scale),"sugar beet; Preemergence, Rate 125 g/ha",0
same,Sugarbeets plant response rating,sugar beet; [2],0
same,Sugarbeets plant response rating,sugar beet; [3],0
same,Sugarbeets plant response rating,sugar beet; [4],0
same,Sugarbeets plant response rating,sugar beet; [5],0
same,"Plant response rating, Sugarbeets",sugar beet; [6],0
same,Nutsedge plant response rating,purple nutsedge; [1],0
same,Nutsedge plant response rating (0 to 10 scale),"purple nutsedge; Preemergence, Rate 125 g/ha",0
same,Nutsedge plant response rating,purple nutsedge; [2],0
same,Nutsedge plant response rating,purple nutsedge; [3],0
same,Nutsedge plant response rating,purple nutsedge; [4],0
same,Nutsedge plant response rating,purple nutsedge; [5],0
same,"Plant response rating, Nutsedge",purple nutsedge; [6],0
same,Ducksalad plant response rating,duck salad; [7],0
same,Ducksalad plant response rating,duck salad; [8],0
same,Ducksalad plant response rating,duck salad; [9],0
same,Ducksalad plant response rating,duck salad; [10],0
COc1cccc(C)c1-n1c(=O)on(C(=O)N(c2ccc(F)cc2F)C(C)C)c1=O [Compound 74],Rape plant response rating,rape; [11],0
same,Rape plant response rating,rape; [12],0
same,Rape plant response rating,rape; [13],0
same,"Plant response rating, Rape",rape; [14],0
same,"Plant response rating, Rape",rape; [2],0
same,Rape plant response rating,rape; [15],5
same,Rape plant response rating,rape; [16],0
same,Rape plant response rating,rape; [17],2
same,Sugarbeets plant response rating,sugar beet; [11],0
same,Sugarbeets plant response rating,sugar beet; [12],0
same,Sugarbeets plant response rating,sugar beet; [13],0
same,"Plant response rating, Sugarbeets",sugar beet; [14],0
same,"Plant response rating, Sugarbeets",sugar beet; [2],2
same,Sugarbeets plant response rating,sugar beet; [15],4
same,Sugarbeets plant response rating,sugar beet; [16],0
same,Sugarbeets plant response rating,sugar beet; [17],0
same,Nutsedge plant response rating,purple nutsedge; [11],0
same,Nutsedge plant response rating,purple nutsedge; [12],0
same,Nutsedge plant response rating,purple nutsedge; [13],0
same,"Plant response rating, Nutsedge",purple nutsedge; [14],0
same,"Plant response rating, Nutsedge",purple nutsedge; [2],0
same,Nutsedge plant response rating,purple nutsedge; [15],0
same,Nutsedge plant response rating,purple nutsedge; [16],0
same,Nutsedge plant response rating,purple nutsedge; [17],0
same,Ducksalad plant response rating,duck salad; [11],0
same,Ducksalad plant response rating,"duck salad; Rate 125 g/ha, Postemergence section (flood test species), scale 0 to 10, 0 no effect, 10 complete control",0
same,Ducksalad plant response rating,"duck salad; Rate 500 g/ha, listed under Postemergence (flood test species), scale 0 to 10, 0 no effect, 10 complete control",0
same,Ducksalad plant response rating,"duck salad; flood test, listed under Postemergence, Rate 250 g/ha, scale 0 to 10, 0 no effect, 10 complete control",0
CC(C)N(C(=O)n1oc(=O)n(CC2CCC2)c1=O)c1ccc(F)cc1F [Compound 521],Rape plant response rating,rape; [18],0
same,Rape plant response rating,rape; [19],0
same,"Plant response rating, Rape",rape; [20],3
same,"Plant response rating, Rape",rape; [1],0
same,Rape plant response rating,rape; [21],0
same,Rape plant response rating (0 to 10 scale),"rape; Preemergence, Rate 250 g/ha",2
same,Rape plant response rating,rape; [3],2
same,"Plant response rating, Rape",rape; [6],2
same,Sugarbeets plant response rating,sugar beet; [18],0
same,Sugarbeets plant response rating,sugar beet; [19],0
same,"Plant response rating, Sugarbeets",sugar beet; [20],4
same,"Plant response rating, Sugarbeets",sugar beet; [1],0
same,Sugarbeets plant response rating,sugar beet; [21],0
same,Sugarbeets plant response rating (0 to 10 scale),"sugar beet; Preemergence, Rate 250 g/ha",3
same,Sugarbeets plant response rating,sugar beet; [3],3
same,"Plant response rating, Sugarbeets",sugar beet; [6],0
same,Nutsedge plant response rating,purple nutsedge; [18],0
same,Nutsedge plant response rating,purple nutsedge; [19],0
same,"Plant response rating, Nutsedge",purple nutsedge; [20],0
same,"Plant response rating, Nutsedge",purple nutsedge; [1],0
same,Nutsedge plant response rating,purple nutsedge; [21],0
same,Nutsedge plant response rating (0 to 10 scale),"purple nutsedge; Preemergence, Rate 250 g/ha",0
same,Nutsedge plant response rating,purple nutsedge; [3],0
same,"Plant response rating, Nutsedge",purple nutsedge; [6],0
same,"Plant response rating, Ducksalad (0 to 10 scale, 0 is no effect, 10 is complete control)",duck salad; [22],0
same,"Ducksalad plant response rating (0 to 10 scale, 0 is no effect, 10 is complete control)",duck salad; [23],0
same,Ducksalad plant response rating,duck salad; [24],0
same,Ducksalad plant response rating,duck salad; [25],0
CC(C)N(C(=O)n1oc(=O)n(C(C)C)c1=O)c1cnccn1 [Compound 296],Rape plant response rating,rape; [26],0
same,Rape plant response rating,rape; [1],0
same,Rape plant response rating,rape; [2],0
same,Rape plant response rating,rape; [4],0
same,Rape plant response rating,rape; [5],0
same,Rape plant response rating,rape; [27],0
same,"Plant response rating, Rape",rape; [6],0
same,Sugarbeets plant response rating,sugar beet; [26],0
same,Sugarbeets plant response rating,sugar beet; [1],0
same,Sugarbeets plant response rating,sugar beet; [2],0
same,Sugarbeets plant response rating,sugar beet; [4],0
same,Sugarbeets plant response rating,sugar beet; [5],0
same,Sugarbeets plant response rating,sugar beet; [27],0
same,"Plant response rating, Sugarbeets",sugar beet; [6],0
same,Nutsedge plant response rating,purple nutsedge; [26],0
same,Nutsedge plant response rating,purple nutsedge; [1],0
same,Nutsedge plant response rating,purple nutsedge; [4],0
same,Nutsedge plant response rating,purple nutsedge; [5],0
same,Nutsedge plant response rating,purple nutsedge; [27],0
same,"Plant response rating, Nutsedge",purple nutsedge; [6],0
same,Ducksalad plant response rating,"duck salad; Rate 31 g/ha, Pre-emergence section (flood test species), scale 0 to 10",0
same,Ducksalad plant response rating,duck salad; [7],0
same,Ducksalad plant response rating,duck salad; [8],0
same,Ducksalad plant response rating,duck salad; [9],0
CC(C)N(C(=O)n1oc(=O)n(CSC#N)c1=O)c1ccc(F)cc1 [Compound 618],"Plant response rating, Rape",rape; [11],0
same,"Plant response rating, Rape",rape; [28],0
same,Rape plant response rating,rape; [29],0
same,"Plant response rating, Rape","rape; Postemergence, Rate 500 g/ha, scale of 0 to 10 where 0 is no effect and 10 is complete control",0
same,Rape plant response rating,rape; [13],0
same,Rape plant response rating,rape; [30],0
same,"Plant response rating, Rape",rape; [31],0
same,"Plant response rating, Rape",rape; [3],0
same,"Plant response rating, Sugarbeets",sugar beet; [11],0
same,"Plant response rating, Sugarbeets",sugar beet; [28],0
same,Sugarbeets plant response rating,sugar beet; [29],0
same,Sugarbeets plant response rating,sugar beet; [13],0
same,Sugarbeets plant response rating,sugar beet; [30],0
same,"Plant response rating, Sugarbeets",sugar beet; [31],0
same,"Plant response rating, Sugarbeets",sugar beet; [3],0
same,"Plant response rating, Nutsedge",purple nutsedge; [11],0
same,"Plant response rating, Nutsedge",purple nutsedge; [28],0
same,Nutsedge plant response rating,purple nutsedge; [29],0
same,Nutsedge plant response rating,purple nutsedge; [30],0
same,"Plant response rating, Nutsedge",purple nutsedge; [3],0
same,"Plant response rating, Ducksalad (0 to 10 scale, 0 is no effect, 10 is complete control)",duck salad; [22],0
same,"Ducksalad plant response rating (0 to 10 scale, 0 is no effect, 10 is complete control)",duck salad; [23],0
same,Ducksalad plant response rating,duck salad; [24],0
same,Ducksalad plant response rating,duck salad; [25],0
Cc1ccc(N(C(=O)n2oc(=O)n(-c3ccc4ccccc4c3)c2=O)C(C)C)cc1 [Compound 334],"Plant response rating, Rape",rape; [19],0
same,Rape plant response rating,rape; [1],0
same,Rape plant response rating (0 to 10 scale),"rape; Preemergence, Rate 125 g/ha",0
same,Rape plant response rating,rape; [2],0
same,Rape plant response rating,rape; [3],0
same,Rape plant response rating,rape; [4],0
same,"Plant response rating, Rape",rape; [17],0
same,"Plant response rating, Sugarbeets",sugar beet; [19],0
same,Sugarbeets plant response rating,sugar beet; [1],0
same,Sugarbeets plant response rating (0 to 10 scale),"sugar beet; Preemergence, Rate 125 g/ha",0
same,Sugarbeets plant response rating,sugar beet; [2],0
same,Sugarbeets plant response rating,sugar beet; [3],0
same,Sugarbeets plant response rating,sugar beet; [4],0
same,"Plant response rating, Sugarbeets",sugar beet; [17],0
same,"Plant response rating, Nutsedge",purple nutsedge; [19],0
same,Nutsedge plant response rating,purple nutsedge; [1],0
same,Nutsedge plant response rating (0 to 10 scale),"purple nutsedge; Preemergence, Rate 125 g/ha",0
same,Nutsedge plant response rating,purple nutsedge; [2],0
same,Nutsedge plant response rating,purple nutsedge; [3],0
same,Nutsedge plant response rating,purple nutsedge; [4],0
same,"Plant response rating, Nutsedge",purple nutsedge; [17],0
same,Ducksalad plant response rating,duck salad; [7],0
same,Ducksalad plant response rating,duck salad; [8],0
same,Ducksalad plant response rating,duck salad; [9],0
same,Ducksalad plant response rating,duck salad; [10],0
